Experimental data reported in PubChem BioAssay (NCI).
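Step 1: Grow cells in 96-well plates. Step 2: Expose to compound for 48 hours at 5 concentrations. Step 3: Interpolate endpoints linearly; if unreached, use highest concentration. The concentration for 50% growth inhibition is given as GI50. The concentration for full growth arrest is given as TGI.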

Legend:
Test in all cases: DTP human tumour cell line panel, 48 h
[1] = system: 786-0 renal
[2] = system: A498 renal
[3] = system: A549 NSCLC
[4] = system: ACHN renal
[5] = system: BT-549 breast
[6] = system: CAKI-1 renal
[7] = system: CCRF-CEM leukemia
[8] = system: COLO 205 colon
[9] = system: DU-145 prostate
[10] = system: EKVX NSCLC
[11] = system: HCC-2998 colon
[12] = system: HCT-116 colon
[13] = system: HCT-15 colon
[14] = system: HL-60(TB) leukemia
[15] = system: HOP-62 NSCLC
[16] = system: HOP-92 NSCLC
[17] = system: HS 578T breast
[18] = system: HT29 colon
[19] = system: IGROV1 ovarian
[20] = system: K-562 leukemia
[21] = system: KM12 colon
[22] = system: LOX IMVI melanoma
[23] = system: M14 melanoma
[24] = system: MALME-3M melanoma
[25] = system: MCF7 breast
[26] = system: MDA-MB-231 breast
[27] = system: MOLT-4 leukemia
[28] = system: NCI-H226 lung
[29] = system: NCI-H23 lung
[30] = system: NCI-H460 lung
[31] = system: NCI-H522 lung
[32] = system: NCI/ADR-RES ovarian
[33] = system: OVCAR-3 ovarian
[34] = system: OVCAR-4 ovarian
[35] = system: OVCAR-5 ovarian
[36] = system: OVCAR-8 ovarian
[37] = system: PC-3 prostate
[38] = system: SF-268 CNS
[39] = system: SF-295 CNS
[40] = system: SF-539 CNS
[41] = system: SK-MEL-2 melanoma
[42] = system: SK-MEL-28 melanoma
[43] = system: SK-MEL-5 melanoma
[44] = system: SK-OV-3 ovarian
[45] = system: SN12C renal
[46] = system: SNB-19 CNS
[47] = system: SNB-75 CNS
[48] = system: SR leukemia
[49] = system: SW-620 colon
[50] = system: T-47D breast
[51] = system: TK-10 renal
[52] = system: U251 CNS
[53] = system: UACC-257 melanoma
[54] = system: UACC-62 melanoma
[55] = system: UO-31 renal

In the case of `COc1ccc2[nH]c(-c3ccccc3)c(/C=C(\C#N)S(=O)(=O)c3ccccc3)c2c1`, the GI50 [1] is reported as 6.07 µM, the TGI [1] is reported as over 100 µM and the GI50 [2] is reported as 9.31 µM. The TGI [2] was 44.6 µM, the GI50 [3] was 5.98 µM and the TGI [3] was over 100 µM. It also gave a GI50 [4] of 12.9 µM, a TGI [4] of over 100 µM and a GI50 [5] of 11.6 µM. The TGI [5] was over 100 µM, the GI50 [6] was 4.47 µM and the TGI [6] was 43.4 µM. It also gave a GI50 [7] of 6.52 µM, a TGI [7] of over 100 µM and a GI50 [8] of 7.35 µM. For the same compound, the TGI [8] was over 100 µM, the GI50 [9] was 10.1 µM and the TGI [9] was over 100 µM. The GI50 [10] was 6.86 µM, the TGI [10] was over 100 µM and the GI50 [11] was 18.7 µM. The TGI [11] was over 100 µM, the GI50 [12] was 3.74 µM and the TGI [12] was over 100 µM. The GI50 [13] was 4.02 µM, the TGI [13] was over 100 µM and the GI50 [14] was 2380 nM. For the same compound, the TGI [14] was 7.11 µM, the GI50 [15] was 8.38 µM and the TGI [15] was over 100 µM. It also gave a GI50 [16] of 6.05 µM, a TGI [16] of 36.3 µM and a GI50 [17] of 7.59 µM. It also gave a TGI [17] of 85.5 µM, a GI50 [18] of 3.49 µM and a TGI [18] of over 100 µM. It also gave a GI50 [19] of 4.79 µM, a TGI [19] of 25.5 µM and a GI50 [20] of 1420 nM. It also gave a TGI [20] of over 100 µM, a GI50 [21] of 2960 nM and a TGI [21] of over 100 µM. For the same compound, the GI50 [22] was 7.4 µM, the TGI [22] was over 100 µM and the GI50 [23] was 3.72 µM. It also gave a TGI [23] of over 100 µM, a GI50 [24] of 19.4 µM and a TGI [24] of over 100 µM. It also gave a GI50 [25] of 3.93 µM, a TGI [25] of over 100 µM and a GI50 [26] of 7.48 µM. It also gave a TGI [26] of over 100 µM, a GI50 [27] of 4.7 µM and a TGI [27] of over 100 µM. The GI50 [28] was 9.41 µM, the TGI [28] was over 100 µM and the GI50 [29] was 7.97 µM. For the same compound, the TGI [29] was over 100 µM, the GI50 [30] was 4.55 µM and the TGI [30] was over 100 µM. The GI50 [31] was 3.98 µM, the TGI [31] was 46.7 µM and the GI50 [32] was 3.83 µM. It also gave a TGI [32] of over 100 µM, a GI50 [33] of 4.96 µM and a TGI [33] of 24.4 µM. The GI50 [34] was 8.33 µM, the TGI [34] was over 100 µM and the GI50 [35] was 37.3 µM. It also gave a TGI [35] of over 100 µM, a GI50 [36] of 7.96 µM and a TGI [36] of over 100 µM. The GI50 [37] was 8.3 µM, the TGI [37] was over 100 µM and the GI50 [38] was 13.3 µM. It also gave a TGI [38] of over 100 µM, a GI50 [39] of 2790 nM and a TGI [39] of 28.7 µM. For the same compound, the GI50 [40] was 5.48 µM, the TGI [40] was 34.7 µM and the GI50 [41] was 3.7 µM. It also gave a TGI [41] of 20.3 µM, a GI50 [42] of 6.05 µM and a TGI [42] of over 100 µM. The GI50 [43] was 3.05 µM, the TGI [43] was 29.3 µM and the GI50 [44] was 7.05 µM. For the same compound, the TGI [44] was 66.7 µM, the GI50 [45] was 7.76 µM and the TGI [45] was over 100 µM. The GI50 [46] was 13.5 µM, the TGI [46] was over 100 µM and the GI50 [47] was 5.92 µM. For the same compound, the TGI [47] was 44.8 µM, the GI50 [48] was 2210 nM and the TGI [48] was 15.7 µM. The GI50 [49] was 3.97 µM, the TGI [49] was over 100 µM and the GI50 [50] was 5.18 µM. For the same compound, the TGI [50] was over 100 µM, the GI50 [51] was 17.5 µM and the TGI [51] was over 100 µM. It also gave a GI50 [52] of 4.59 µM, a TGI [52] of over 100 µM and a GI50 [53] of 4.92 µM. It also gave a TGI [53] of 69 µM, a GI50 [54] of 3.83 µM and a TGI [54] of 60.7 µM. For the same compound, the GI50 [55] was 4.03 µM and the TGI [55] was 34.5 µM.
